Assay [1] deals with MCP-1 activity. The conditions noted are these: point mutations Thr-10 to Arg and Tyr-13 to Ile; cited from earlier work.
Assay [2] concerns astrocytic MCP-1 expression. The assay can be described thus: Northern blot analysis of MCP-1 RNA in stimulated human astrocytes. Type of assay: cell-based. The source says: FIG. 1A—Total RNA was extracted from T lymphoblastoid HUT 78 cells (ATCC), and from variously treated human astrocytes. Ten μg per lane were then run on a 1% agarose-6% formaldehyde gel. Following transfer of RNA to nitrocellulose, the blot was probed with the full-length cDNA for MCP-1, and subsequently, RANTES. RNA from untreated astrocytes was run in lanes 2 and 4. […] Astrocytic expression of RANTES was not detected.
FIG. 1B—Similar experience except that RNA from HUT 78 cells (lane 1) was compared to RNA from astrocytes that were unstimulated (lane 2) or stimulated for 2 hr with 100 nM Tat (lane 3), 25 μM TPCK followed by 100 nM Tat (lane 4) or 25 μM TPCK (lane 5).
Brain tissue from 12-14 wk human fetuses was obtained in accordance with NIH guidelines. The tissue was mechanically disrupted by aspiration through a 19-gauge needle, washed in Eagle's minimal essential medium (EMEM) and then distributed into tissue culture flasks. Cells were maintained in EMEM containing 10% fetal bovine serum, 2 mM L-glutamine and 5 μg/ml gentamicin. Several days later, flasks were placed into an orbital incubator shaker at 37° C. and 210 rpm for 6 hr. Non-adherent cells were removed. A portion of the adherent cells were later stained with an antibody to glial fibrallary acidic protein and only those cultures which were >95% positive were used. […]

We go through three compounds from patent publication US6541208B1, “Diagnostic method for distinguishing HIV-associated dementia from other forms of dementia” (University of Maryland Biotechnology Institute, priority 1998, dated 2003).

For the compound “MCP-1 protein with point mutations of Thr-10 to Arg and Tyr-13 to Ile: mutant MCP-1 protein from Beal et al., contemplated as MCP-1 antagonist”, the “MCP-1 activity of the mutant protein” value in assay [1] was “greatly reduced MCP-1 activity”.

Consider “interleukin-1β: cytokine used at 5 ng/ml to stimulate astrocytes [reference compound]”, for which, in assay [2] (5 ng/ml interleukin-1β, 4 hr stimulation, human astrocytes), the “astrocytic MCP-1 expression (MCP-1 encoding RNA)” value was “increase in astrocytic MCP-1 expression”.

Turning to `Cc1ccc(S(=O)(=O)N[C@@H](Cc2ccccc2)C(=O)CCl)cc1` [TPCK, n-tosli-L-phenylalanine chloromethyl ketone, reference compound], the “effect on Tat-induced increase in MCP-1 encoding RNA” value in assay [2] (25 μM TPCK followed by 100 nM Tat, 2 hr) is given as “inhibited”.
